{
  "source": "paper PMC12670405",
  "about": "“Second-Generation AURKA-Targeting PROTACs: Structural Optimization toward in Vivo Degradation in Neuroblastoma” (Journal of Medicinal Chemistry, 2025)",
  "assay_in_all_cases": "LC-MS/MS proteome profiling",
  "assay_type_in_all_cases": "cell-based, Homo sapiens",
  "key": {"[1]": {"test_system": "ZNF337", "details": "SK5527 vs DMSO (24h)", "protocol": "(§1) Analysis of the mass spectrometry data was performed in DiaNN (version 1.9). Precursor false discovery rate was set at 1%. Spectra were searched against the Homo sapiens protein sequences in the Uniprot database (database release version of 2024_01), containing 20,597 sequences (www.uniprot.org) and the imbedded protein contaminant list. Enzyme specificity was set as C-terminal to arginine and lysine, also allowing cleavage at proline bonds with a maximum of 2 missed cleavages. Variable modifications were set to oxidation of methionine residues and acetylation of protein N-termini while fixed modification was set to carbamidomethylation of cystein residues. Matching between runs was enabled. Mainly default settings were used, except for the addition of a 400-900 m/z precursor mass range filter and MS1 and MS2 mass tolerance was set to 10 and 20 ppm respectively.\n(§2) Further data analysis of the results was performed with an in-house script in the R programming language.\n(§3) Protein expression matrices were prepared as follows: the DIA-NN main report output table was filtered at a precursor and protein library q-value cut-off of 1 % and only proteins identified by at least one proteotypic peptide were retained. After pivoting into a wide format, iBAQ intensity columns were then added to the matrix using the DIAgui’s R package get_IBAQ function. PG MaxLFQ intensities were log2 transformed and replicate samples were grouped. Proteins with less than 3 valid values in at least one group were removed and missing values were imputed from a normal distribution centered around the detection limit (package DEP) leading to a list of 7,759 quantified proteins in the experiment, used for further data analysis. To compare protein abundance […]\n(§4) 24h MK-5108 vs 24h DMSO sample groups), statistical testing for differences between two group means was performed, using the package limma. Statistical significance for differential regulation was set to a false discovery rate (FDR) of < 0.05 and |log2FC| = 2."}, "[2]": {"test_system": "ZNF7", "details": "SK5527 vs DMSO (24h)", "protocol": "as §1, §2, §3, §4"}, "[3]": {"test_system": "PLCXD1", "details": "SK5527 vs DMSO (24h)", "protocol": "as §1, §2, §3, §4"}, "[4]": {"test_system": "JMJD1C", "details": "SK5527 vs DMSO (24h)", "protocol": "as §1, §2, §3, §4"}, "[5]": {"test_system": "RSF1", "details": "SK5527 vs DMSO (24h)", "protocol": "as §1, §2, §3, §4"}, "[6]": {"test_system": "ABCA3", "details": "SK5527 vs DMSO (24h)", "protocol": "as §1, §2, §3, §4"}, "[7]": {"test_system": "HAND2", "details": "SK5527 vs DMSO (24h)", "protocol": "as §1, §2, §3, §4"}, "[8]": {"test_system": "SRSF10", "details": "SK5527 vs DMSO (24h)", "protocol": "as §1, §2, §3, §4"}, "[9]": {"test_system": "SIPA1L3", "details": "SK5527 vs DMSO (24h)", "protocol": "as §1, §2, §3, §4"}, "[10]": {"test_system": "SP2", "details": "SK5527 vs DMSO (24h)", "protocol": "as §1, §2, §3, §4"}, "[11]": {"test_system": "ARHGEF18", "details": "SK5527 vs DMSO (24h)", "protocol": "as §1, §2, §3, §4"}, "[12]": {"test_system": "ZSCAN22", "details": "SK5527 vs DMSO", "protocol": "as §1, §2, §3, §4"}, "[13]": {"test_system": "TROAP", "details": "SK5527 vs DMSO", "protocol": "as §1, §2, §3, §4"}, "[14]": {"test_system": "SMTN", "details": "SK5527 vs DMSO (24h)", "protocol": "as §1, §2, §3, §4"}},
  "data": [
    {"smiles": "Cc1cc(Nc2ccc(F)c(CC3(C(=O)N4CCC(F)(CN5CCN(c6ccc(N7CCC(=O)NC7=O)cn6)CC5)CC4)CCN(Cc4cccc(Cl)c4F)CC3)n2)n[nH]1", "note": "[SK5527]", "values": [
      {"measurement": "logFC ZNF337", "setting": "[1]", "value": 2.22},
      {"measurement": "logFC ZNF7", "setting": "[2]", "value": -2.38},
      {"measurement": "logFC PLCXD1", "setting": "[3]", "value": -2.06},
      {"measurement": "logFC JMJD1C", "setting": "[4]", "value": 2.49},
      {"measurement": "logFC RSF1", "setting": "[5]", "value": 2.45},
      {"measurement": "logFC ABCA3", "setting": "[6]", "value": -4.59},
      {"measurement": "logFC HAND2", "setting": "[7]", "value": -3.26},
      {"measurement": "logFC SRSF10", "setting": "[8]", "value": 2.01},
      {"measurement": "logFC SIPA1L3", "setting": "[9]", "value": -3.26},
      {"measurement": "logFC SP2", "setting": "[10]", "value": -2.23},
      {"measurement": "logFC ARHGEF18", "setting": "[11]", "value": -5.19},
      {"measurement": "logFC ZSCAN22", "setting": "[12]", "value": -2.09},
      {"measurement": "logFC TROAP", "setting": "[13]", "value": 2.33},
      {"measurement": "logFC SMTN", "setting": "[14]", "value": 2.05}
    ]}
  ]
}
